Data taken from ChEMBL document CHEMBL1152332, “Calothrixins, a new class of human DNA topoisomerase I poisons” (J Nat Prod, 2009).
Active and inactive are the calls of the source. The rule behind the calls is not given here.

Assays:
[1] = target: T1, DNA topoisomerase 1 (Homo sapiens) (UniProt P11387); experiment: Reversal of drug-stabilized human DNA topoisomerase 1-DNA binary complex at 5 uM within 5 mins by polyacrylamide gel electrophoresis in presence of 0.35 M NaCl
T1 sequence (whole entry): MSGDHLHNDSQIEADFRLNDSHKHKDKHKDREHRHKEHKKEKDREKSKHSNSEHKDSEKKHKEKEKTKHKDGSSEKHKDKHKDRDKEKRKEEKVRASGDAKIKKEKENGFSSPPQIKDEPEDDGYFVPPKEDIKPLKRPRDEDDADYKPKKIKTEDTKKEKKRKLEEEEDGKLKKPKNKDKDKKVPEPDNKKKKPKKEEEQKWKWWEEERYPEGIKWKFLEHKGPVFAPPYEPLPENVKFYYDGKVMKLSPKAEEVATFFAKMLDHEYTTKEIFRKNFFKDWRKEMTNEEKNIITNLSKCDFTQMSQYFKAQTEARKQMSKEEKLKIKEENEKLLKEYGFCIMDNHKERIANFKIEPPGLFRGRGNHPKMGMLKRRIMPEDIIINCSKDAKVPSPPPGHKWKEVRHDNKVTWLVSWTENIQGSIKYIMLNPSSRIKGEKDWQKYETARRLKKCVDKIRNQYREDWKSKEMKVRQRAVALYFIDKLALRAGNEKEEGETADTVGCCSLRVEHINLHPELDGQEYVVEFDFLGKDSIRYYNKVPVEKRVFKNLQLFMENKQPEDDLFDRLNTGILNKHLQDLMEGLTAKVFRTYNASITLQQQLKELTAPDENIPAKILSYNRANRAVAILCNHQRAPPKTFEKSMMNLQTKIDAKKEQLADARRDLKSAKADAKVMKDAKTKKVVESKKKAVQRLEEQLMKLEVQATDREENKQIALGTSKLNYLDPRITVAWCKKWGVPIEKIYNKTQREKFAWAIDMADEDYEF

[2] = target: T1, DNA topoisomerase 1 (Homo sapiens); experiment: Induction of human DNA topoisomerase 1-mediated DNA cleavage at 1 to 10 uM by polyacrylamide gel electrophoresis
[3] = system: CCRF-CEM; experiment: Cell cycle arrest in human CCRF-CEM cells assessed as accumulation at G2/M phase at 1 uM treated for 3 hrs measured for 15 hrs after nocodazole treatment by flow cytometry in presence of mitotic inhibitor nocodazole; format: functional
[4] = system: CCRF-CEM; experiment: Cell cycle arrest in human CCRF-CEM cells assessed as accumulation at subG1 phase at 1 uM treated for 3 hrs measured for 15 hrs after nocodazole treatment by flow cytometry in presence of mitotic inhibitor nocodazole; format: functional
[5] = system: CCRF-CEM; experiment: Cell cycle arrest in human CCRF-CEM cells assessed as accumulation at S phase at 0.1 uM treated for 3 hrs followed by drug washout and 15 hrs incubation in drug free medium by flow cytometry; format: functional
[6] = system: CCRF-CEM; experiment: Cell cycle arrest in human CCRF-CEM cells assessed as accumulation at G0 phase at 1 uM treated for 3 hrs followed by drug washout and 15 hrs incubation in drug free medium by flow cytometry; format: functional
[7] = system: CCRF-CEM; experiment: Cell cycle arrest in human CCRF-CEM cells assessed as accumulation at subG1 phase at 1 uM treated for 3 hrs followed by drug washout and 15 hrs incubation in drug free medium by flow cytometry; format: functional
[8] = system: CCRF-CEM; experiment: Cell cycle arrest in human CCRF-CEM cells assessed as accumulation at subG1 phase at 0.1 uM treated for 3 hrs followed by drug washout and 15 hrs incubation in drug free medium by flow cytometry; format: functional
[9] = system: CCRF-CEM; experiment: Cell cycle arrest in human CCRF-CEM cells assessed as accumulation at G2/M phase at 10 uM treated for 3 hrs followed by drug washout and 15 hrs incubation in drug free medium by flow cytometry; format: functional
[10] = system: CCRF-CEM; experiment: Cell cycle arrest in human CCRF-CEM cells assessed as accumulation at S phase at 10 uM treated for 3 hrs measured for 15 hrs after nocodazole treatment by flow cytometry in presence of mitotic inhibitor nocodazole; format: functional
[11] = system: CCRF-CEM; experiment: Cell cycle arrest in human CCRF-CEM cells assessed as accumulation at subG1 phase at 0.1 uM treated for 3 hrs measured for 15 hrs after nocodazole treatment by flow cytometry in presence of mitotic inhibitor nocodazole; format: functional
[12] = system: CCRF-CEM; experiment: Cell cycle arrest in human CCRF-CEM cells assessed as accumulation at G0 phase at 10 uM treated for 3 hrs measured for 15 hrs after nocodazole treatment by flow cytometry in presence of mitotic inhibitor nocodazole; format: functional
[13] = system: CCRF-CEM; experiment: Cell cycle arrest in human CCRF-CEM cells assessed as accumulation at S phase at 0.1 uM treated for 3 hrs measured for 15 hrs after nocodazole treatment by flow cytometry in presence of mitotic inhibitor nocodazole; format: functional
[14] = system: CCRF-CEM; experiment: Cell cycle arrest in human CCRF-CEM cells assessed as accumulation at G0 phase at 0.1 uM treated for 3 hrs measured for 15 hrs after nocodazole treatment by flow cytometry in presence of mitotic inhibitor nocodazole; format: functional
[15] = system: CCRF-CEM; experiment: Cell cycle arrest in human CCRF-CEM cells assessed as accumulation at subG1 phase at 10 uM treated for 3 hrs measured for 15 hrs after nocodazole treatment by flow cytometry in presence of mitotic inhibitor nocodazole; format: functional
[16] = system: CCRF-CEM; experiment: Cytotoxicity against p38-proficient human CCRF-CEM cells after 3 days by MTT assay; format: functional, cell-based; settings: 72 h
[17] = system: CCRF-CEM; experiment: Cell cycle arrest in human CCRF-CEM cells assessed as accumulation at G2/M phase at 0.1 uM treated for 3 hrs followed by drug washout and 15 hrs incubation in drug free medium by flow cytometry; format: functional
[18] = system: CCRF-CEM; experiment: Cell cycle arrest in human CCRF-CEM cells assessed as accumulation at S phase at 10 uM treated for 3 hrs followed by drug washout and 15 hrs incubation in drug free medium by flow cytometry; format: functional
[19] = system: CCRF-CEM; experiment: Cell cycle arrest in human CCRF-CEM cells assessed as accumulation at subG1 phase at 10 uM treated for 3 hrs followed by drug washout and 15 hrs incubation in drug free medium by flow cytometry; format: functional
[20] = system: CCRF-CEM; experiment: Cell cycle arrest in human CCRF-CEM cells assessed as accumulation at S phase at 1 uM treated for 3 hrs measured for 15 hrs after nocodazole treatment by flow cytometry in presence of mitotic inhibitor nocodazole; format: functional
[21] = system: CCRF-CEM; experiment: Cell cycle arrest in human CCRF-CEM cells assessed as accumulation at S phase at 1 uM treated for 3 hrs followed by drug washout and 15 hrs incubation in drug free medium by flow cytometry; format: functional
[22] = system: CCRF-CEM; experiment: Cell cycle arrest in human CCRF-CEM cells assessed as accumulation at G2/M phase at 1 uM treated for 3 hrs followed by drug washout and 15 hrs incubation in drug free medium by flow cytometry; format: functional
[23] = system: CCRF-CEM; experiment: Cell cycle arrest in human CCRF-CEM cells assessed as accumulation at G2/M phase at 10 uM treated for 3 hrs measured for 15 hrs after nocodazole treatment by flow cytometry in presence of mitotic inhibitor nocodazole; format: functional
[24] = system: CCRF-CEM; experiment: Cell cycle arrest in human CCRF-CEM cells assessed as accumulation at G0 phase at 0.1 uM treated for 3 hrs followed by drug washout and 15 hrs incubation in drug free medium by flow cytometry; format: functional
[25] = system: CCRF-CEM; experiment: Cell cycle arrest in human CCRF-CEM cells assessed as accumulation at G2/M phase at 0.1 uM treated for 3 hrs measured for 15 hrs after nocodazole treatment by flow cytometry in presence of mitotic inhibitor nocodazole; format: functional
[26] = system: CCRF-CEM; experiment: Cell cycle arrest in human CCRF-CEM cells assessed as accumulation at G0 phase at 10 uM treated for 3 hrs followed by drug washout and 15 hrs incubation in drug free medium by flow cytometry; format: functional
[27] = system: CCRF-CEM; experiment: Cell cycle arrest in human CCRF-CEM cells assessed as accumulation at G0 phase at 1 uM treated for 3 hrs measured for 15 hrs after nocodazole treatment by flow cytometry in presence of mitotic inhibitor nocodazole; format: functional

SMILES | Activity [1] | Activity [2] | Activity [3] | Activity [4] | Activity [5] | Activity [6] | Activity [7] | Activity [8] | Activity [9] | Activity [10] | Activity [11] | Activity [12] | Activity [13] | Activity [14] | Activity [15] | IC50 [16] | Activity [20] | Activity [21] | Activity [22] | Activity [27] | also measured
CO[n+]1cc2c(c3ccccc31)C(=O)c1[nH]c3ccccc3c1C2=O | Active | 11% | – | – | – | – | – | – | – | – | – | – | – | – | – | – | – | – | – | – | –
C[n+]1cc2c(c3ccccc31)C(=O)c1[nH]c3ccccc3c1C2=O.[I-] [N-METHYLCALOTHRIXIN B] | Active | 11% | 20.1% | 5.4% | 17.8% | 51% | 10.6% | 9.8% | 19% | 11.3% | 3.7% | 11.6% | 3.2% | 5.1% | 6.9% | 5130 nM | 4.9% | 17% | 19.6% | 6.9% | Activity [17]: 20.2%; Activity [18]: 15.1%; Activity [19]: 11.8%; Activity [23]: 21.7%; Activity [24]: 50.3%; Activity [25]: 18.8%; Activity [26]: 51.7%
CC[C@@]1(O)C(=O)OCc2c1cc1n(c2=O)Cc2cc3ccccc3nc2-1 [CAMPTOTHECIN] | – | – | 21.7% | 17.5% | – | 34.6% | 18% | – | – | – | – | – | – | – | – | 40 nM | 10.3% | 15.5% | 28.4% | 23.6% | –

The next lines start with results.

Activity [1] | Activity [2] | SMILES | Activity [3] | Activity [4] | Activity [5] | Activity [6] | Activity [7] | Activity [8] | Activity [9] | Activity [10] | Activity [11] | Activity [12] | Activity [13] | Activity [14] | Activity [15] | IC50 [16] | Activity [20] | Activity [21] | Activity [22] | Activity [27] | also measured
Active | 18% | O=C1c2c[n+]([O-])c3ccccc3c2C(=O)c2[nH]c3ccccc3c21 [CALOTHRIXIN A] | 29.5% | 4.2% | 17.3% | 47.3% | 16% | 10.3% | 23.6% | 7.5% | 7.7% | 13% | 4% | 8.3% | 2.1% | 200 nM | 8.7% | 15.3% | 19% | 13.3% | Activity [17]: 19.4%; Activity [18]: 15.3%; Activity [19]: 9.1%; Activity [23]: 37%; Activity [24]: 51.4%; Activity [25]: 16.8%; Activity [26]: 50.1%
Active | 24% | O=C1c2[nH]c3ccccc3c2C(=O)c2cnc3ccccc3c21 [CALOTHRIXIN B] | 18.8% | 4.6% | 17.6% | 55.6% | 7.9% | 7.5% | 18.6% | 4.6% | 6.2% | 7.7% | 4.5% | 25.3% | 6.4% | 1050 nM | 4.8% | 18.2% | 16.5% | 7.4% | Activity [17]: 17.3%; Activity [18]: 17%; Activity [19]: 11.2%; Activity [23]: 18.2%; Activity [24]: 55.6%; Activity [25]: 61.5%; Activity [26]: 51.4%
